Test results published in US20160250285A1, “NEUROPROTECTIVE PEPTIDES” (priority 2013, published 2016).
pIC50: −log10 of the molar value. Entries after “also recorded” stand apart in the source; their conditions may differ. Ends that are not written are not given here.

How the values were obtained:
[1] = system: permanent middle cerebral artery occlusion (MCAO) stroke model; assay: Rat permanent middle cerebral artery occlusion (MCAO) stroke model; type: in vivo; conditions: 1 μmol/kg intravenously 30 min post-MCAO
Procedure: Administration of peptide (DR9: rrrrrrrrr-NH2; R12, R15, R18, protamine sulphate; protamine) or vehicle (saline: 0.9% NaCl) treatment solution was performed at 30 min post-MCAO. The peptide treatment comprised DR9 in saline (600 μl) to provide an intravenous loading dose of 1 μmol/kg or 1000 nmol/kg given over 5-6 min via the right jugular vein.
This study was approved by the Animal Ethics Committee of the University of Western Australia. Male Sprague Dawley rats weighing 270 g to 350 g were kept under controlled housing conditions with 12 hour light-dark cycle with free access to food and water. Experimental animals were fasted overnight and subjected to permanent middle cerebral artery occlusion (MCAO) as follows.
Anaesthesia was induced with 4% isoflurane and a 2:1 mix of N2O and O2 via mask. Anaesthesia was maintained at 1.7-2% isoflurane. Cerebral blood flow (CBF) was monitored continuously using laser Doppler flowmetry (Blood FlowMeter, AD Instruments, Sydney, Australia). The probe was located 1 mm caudal and 4 mm lateral (right) to the bregma. A cannula was inserted in the right femoral artery to continuously monitor blood pressure and to provide samples for blood glucose and blood gas readings. Blood glucose was measured using a glucometer (MediSense Products, Abbott Laboratories, Bedford, Mass., USA) and blood gases were measured using a blood gas analyser (ABL5, Radiometer, Copenhagen, Denmark). Blood pressure was maintained at 80-100 mmHg. During surgery, rectal temperature was maintained at 37±0.5° C. and warming applied with a fan heater when necessary. For intravenous infusions, a length of PVC line primed with heparinised saline was tied in place in the right jugular vein, then externalised through a dorsal mid-scapular incision to a tether/swivel system (Instech Laboratories, Philadelphia, USA) designed to permit free movement.
The right common carotid artery (CCA) was exposed via a ventral neck incision. […] The isolated section of the ECA was ligated and cauterised to create a stump. The carotid body was removed and the pterygopalatine artery was ligated. A 4-0 nylon monofilament with a 0.39 mm diameter silicone tip (Doccol, Redlands, Calif., USA) was inserted through the ECA stump into the CCA and advanced rostrally into the internal carotid artery (ICA) until the laser Doppler flowmetry recorded a >30% decrease from baseline of cerebral blood flow. The monofilament was secured in two places (at the base of the ECA stump and on the ICA) for the remainder of the experiment. Animals were given post-operative analgesia consisting of pethidine (3 mg/kg intramuscular) and bupivacaine (1.5 mg/kg subcutaneously) at head and leg incision sites.
Post-surgery animals were allowed to recover in a climate-controlled chamber and their core body temperature monitored and maintained at 37±0.5° C. by a cooling/heating fan when required for 3-4 hours.
Animals were sacrificed 24 hours post-MCAO with intra-peritoneal injections of sodium pentobarbitone (900 mg/kg). […] Slices were scanned and images were analysed by an operator blind to treatment status using ImageJ 3rd edition (NIH, USA). The total infarct volume was determined by adding the areas of infarcted tissue on both sides of the 2 mm sections. These measured areas were multiplied by half slice thickness (1 mm), and corrected for cerebral oedema by multiplying the ratio of affected to normal hemisphere areas. […]

[2] = system: intracellular calcium influx in neuronal cultures; assay: Intracellular calcium influx (Fura-2 AM) after glutamic acid; type: cell-based, rat; conditions: peptide 5 μM for 10 min, removed before 100 μM glutamic acid (FIG. 44)
Procedure: Fura-2 AM was used for intracellular calcium assessment. Representative fluorescent Fura-2 AM tracers; fluorescence intensity (FI) of neuronal cultures 30 sec before and following addition (arrow) of glutamic acid (100 μM final concentration). Peptides or glutamate receptor blockers were added to neuronal cultures for 10 min and removed (time 0) before glutamic acid. Values are mean±SE; n=3. Peptide concentration was 5 μM.
Briefly, cortical tissue from E18-E19 Sprague-Dawley rats was dissociated in Dulbecco's modified Eagle medium (DMEM; Invitrogen, Australia) supplemented with 1.3 mM L-cysteine, 0.9 mM NaHCOa, 10 units/ml papain (Sigma, USA) and 50 units/ml DNase (Sigma) and washed in cold DMEM/10% horse serum. Neurons were resuspended in Neurobasal (Invitrogen) containing 2% B27 supplement (B27; Invitrogen). Before seeding, 96-well sized glass wells (6 mm diameter, ProTech, Australia) or 96-well plastic plates (ProSciTech, Australia) were coated with poly-D-lysine overnight (50 ml/well: 50 mg/mL; 70-150 K, Sigma). Excess poly-D-lysine solution was then removed and replaced with Neurobasal (containing 2% B27; 4% fetal bovine serum; 1% horse serum; 62.5 mM glutamate; 25 mM 2-mercaptoethanol; and 30 mg/mL streptomycin and 30 mg/mL penicillin). Neurons were plated to obtain ≈10,000 viable neurons for each well on day in vitro 11-12. Neuronal cultures were maintained in a CO2 incubator (5% CO2, 95% air balance, 98% humidity) at 37° C. On day in vitro 4 one third of the culture medium was removed and replaced with fresh Neurobasal/2% B27 containing the mitotic inhibitor, cytosine arabinofuraNOside (1 mM final concentration; Sigma). On day in vitro 8 one half of the culture medium was replaced with Neurobasal/2% B27. Cultures were used on day in vitro 11 or 12 after which time they routinely consist of >97% neurons and 1-3% astrocytes (Meloni et al. 2001).

[3] = system: primary cortical neuronal cultures
Procedure: Briefly, cortical tissue from E18-E19 Sprague-Dawley rats was dissociated in Dulbecco's modified Eagle medium (DMEM; Invitrogen, Australia) supplemented with 1.3 mM L-cysteine, 0.9 mM NaHCOa, 10 units/ml papain (Sigma, USA) and 50 units/ml DNase (Sigma) and washed in cold DMEM/10% horse serum. Neurons were resuspended in Neurobasal (Invitrogen) containing 2% B27 supplement (B27; Invitrogen). Before seeding, 96-well sized glass wells (6 mm diameter, ProTech, Australia) or 96-well plastic plates (ProSciTech, Australia) were coated with poly-D-lysine overnight ([…]: 50 mg/mL; 70-150 K, Sigma). […] Neurons were plated to obtain ≈10,000 viable neurons for each well on day in vitro 11-12. […] On day in vitro 4 one third of the culture medium was removed and replaced with fresh Neurobasal/2% B27 containing the mitotic inhibitor, cytosine arabinofuraNOside (1 mM final concentration; Sigma). On day in vitro 8 one half of the culture medium was replaced with Neurobasal/2% B27.
To induce excitotoxicity, 50 μl of Neurobasal/2% B27 containing glutamic acid (200 μM) or kainic acid (400 μM) or NMDA (200 μM) was added to the culture wells (100 μM glutamic acid, 200 μM kainic acid and NMDA 100 μM final concentration). Cultures were incubated at 37° C. in the CO2 incubator for 5 minutes for glutamic acid, 45 minutes for kainic acid and 10 minutes for NMDA exposure, after which time the media was replaced with 100 μl of 50% Neurobasal/2% N2 supplement (Invitrogen) and 50% balanced salt solution (BSS; see below). Cultures were incubated for a further 24 hours at 37° C. in the CO2 incubator. The untreated controls with or without glutamic acid or kainic acid treatment received the same wash steps and media additions.
Following this step, cultures were treated as described above. Untreated controls with or without glutamic acid exposure received the same wash steps and media additions. In addition, a post-glutamic acid exposure CPP treatment (5 μM) experiment was performed for the R9 peptide and the JNKI-1D-TAT control peptide.
For pre-glutamic acid exposure experiments, neurons were exposed to peptide(s) for a 10 minute period, immediately before or 1, 2, 3, 4 or 5 hours prior to glutamic acid exposure. […] At the relevant peptide pre-treatment time, media was removed and replaced with 100 μl of Neurobasal/2%. […] Following 5-minute glutamic acid exposure, neuronal culture wells were treated as described above. For all experiments untreated controls with or without glutamic acid treatment underwent the same incubation steps and media additions.
Heparin (for injection) was obtained from Pfizer (1000 IU/ml). Two different heparin experiments were performed: 1. Peptides were incubated with heparin (20 IU/ml) in Neurobasal/B27 for 5 minutes at room temperature, before addition to culture wells (50 μl) for 15 minutes at 37° C. in the CO2 incubator. Following the incubation period, media in wells was removed and replaced with 100 μl of Neurobasal/2% B27 containing glutamic acid (100 μM), and subsequently treated as described above; 2. Media in wells was replaced with Neurobasal/2% B27 containing heparin (50 μl; 40 IU/ml) and incubated for 5 minutes at 37° C. in the CO2 incubator. After the incubation period, peptides or glutamate receptor blockers (MK801/CNQX) in Neurobasal/2% B27 (50 μl) were added to the culture wells and cultures incubated for a further 10 minutes at 37° C. in the CO2 incubator. Following the incubation period, media in wells was removed and replaced with 100 μl of Neurobasal/2% B27 containing glutamic acid (100 μM), and subsequently treated as described above. For all experiments, non-heparin treated peptide controls with glutamic acid treatment underwent the same incubation steps and media additions.
Twenty-four hours after insult, neuronal cultures were examined by light microscopy for qualitative assessment of neuronal cell viability.

[4] = system: primary cortical neuronal cultures; assay: In vitro ischemia / oxygen-glucose deprivation (OGD) model, neurons; type: cell-based, rat; conditions: for neuroprotection when added for 15 minutes after OGD: FIGS. 31, 20, 22, 1 μM and 5 μM in FIG. 31
Procedure: Establishment of cortical cultures was as previously described (Meloni et al. 2001). Briefly, cortical tissue from E18-E19 Sprague-Dawley rats was dissociated in Dulbecco's modified Eagle medium (DMEM; Invitrogen, Australia) supplemented with 1.3 mM L-cysteine, 0.9 mM NaHCOa, 10 units/ml papain (Sigma, USA) and 50 units/ml DNase (Sigma) and washed in cold DMEM/10% horse serum. Neurons were resuspended in Neurobasal (Invitrogen) containing 2% B27 supplement (B27; Invitrogen). Before seeding, 96-well sized glass wells (6 mm diameter, ProTech, Australia) or 96-well plastic plates (ProSciTech, Australia) were coated with poly-D-lysine overnight (50 ml/well: 50 mg/mL; 70-150 K, Sigma). Excess poly-D-lysine solution was then removed and replaced with Neurobasal (containing 2% B27; 4% fetal bovine serum; 1% horse serum; 62.5 mM glutamate; 25 mM 2-mercaptoethanol; and 30 mg/mL streptomycin and 30 mg/mL penicillin). Neurons were plated to obtain ≈10,000 viable neurons for each well on day in vitro 11-12. Neuronal cultures were maintained in a CO2 incubator (5% CO2, 95% air balance, 98% humidity) at 37° C. On day in vitro 4 one third of the culture medium was removed and replaced with fresh Neurobasal/2% B27 containing the mitotic inhibitor, cytosine arabinofuraNOside (1 mM final concentration; Sigma). On day in vitro 8 one half of the culture medium was replaced with Neurobasal/2% B27. Cultures were used on day in vitro 11 or 12 after which time they routinely consist of >97% neurons and 1-3% astrocytes (Meloni et al. 2001).
The in vitro ischemia model used for primary cortical neuronal cultures was performed as previously described (Meloni et at 2011) Briefly, culture media was removed from wells (glass 96-well plate format) and washed with 315 μl of glucose free balanced salt solution (BSS; mM: 116 NaCl, 5.4 KCl, 1.8 CaCl2, 0.8 MgSO4, 1 NaH2PO4; pH 6.9) before the addition of 60 μl BSS containing cell penetrating or control peptides (see Table 1). A non-peptide positive control consisting of the glutamate receptor blockers (5 μM MK801/5 μM 6-cyano-7-nitroquinoxaline: MK801/CNQX) was also included. In vitro ischemia was initiated by placing wells in an anaerobic incubator (Don Whitely Scientific, England; atmosphere of 5% CO2, 10% H2 and 85% argon, 98% humidity) at 37° C. for 55 minutes. Upon removal from the anaerobic incubator, 60 μl of Neurobasal/2% N2 supplement was added to the wells and cultures incubated for a further 24 hours at 37° C. in the CO2 incubator. Control cultures received the same BSS wash procedures and media additions as ischemic treated cultures before incubation at 37° C. in the CO2 incubator.
Control cultures underwent the same BSS wash procedures and media additions as OGD treated cultures.
Twenty-four hours after insult, neuronal cultures were examined by light microscopy for qualitative assessment of neuronal cell viability. Neuronal viability was quantitatively measured by 3-(4,5,dimethyliazol-2-yl)-5-(3-carboxymethoxy-phenyl)-2-(4-sulfophenyl)-2H-tetrazolium salt (MTS) assay (Promega, Australia). The MTS assay measures the cellular conversion of the tetrazolium salt to a water-soluble brown formazan salt, which is detected spectrophotometrically at 490 nm. MTS absorbance data were converted to reflect proportional cell viability relative to both the untreated and treated controls, with the untreated control taken as 100% viability, and presented as mean±SEM. […] Viability data was analysed by ANOVA, followed by post-hoc Fischer's PLSD test, with P<0.05 values considered statistically significant. Four- to six wells were used in all assays.

[5] = system: brain endothelial cells (bEND3 cells); assay: In vitro ischemia/OGD model, bEND3 cells; type: cell-based; conditions: peptide during/after ischemia (FIG. 3c) or 15 min before OGD (FIGS. 23, 24)
Procedure: The in vitro ischemia model was also used for bEND3 cells, SH-SY5Y cells, and astrocytes. For bEND3 cells anaerobic incubation was extended to 2-3 hours and upon removal from the anaerobic incubator, 60 μl of DMEM/2% FCS was added to wells. […] Upon removal from the anaerobic incubator, 60 μl of DMEM/2% FCS was added to wells.
Twenty-four hours after insult, neuronal cultures were examined by light microscopy for qualitative assessment of neuronal cell viability. Neuronal viability was quantitatively measured by 3-(4,5,dimethyliazol-2-yl)-5-(3-carboxymethoxy-phenyl)-2-(4-sulfophenyl)-2H-tetrazolium salt (MTS) assay (Promega, Australia). The MTS assay measures the cellular conversion of the tetrazolium salt to a water-soluble brown formazan salt, which is detected spectrophotometrically at 490 nm. MTS absorbance data were converted to reflect proportional cell viability relative to both the untreated and treated controls, with the untreated control taken as 100% viability, and presented as mean±SEM. For studies using astrocytes, bEND3, and SH-Y5Y cells, raw MTS data was used to generate graphs. Viability data was analysed by ANOVA, followed by post-hoc Fischer's PLSD test, with P<0.05 values considered statistically significant. Four- to six wells were used in all assays.

primary rat astrocytes = assay: Astrocyte toxicity model; type: cell-based; conditions: 2.5 to 10 μM, 24 hour exposure (FIG. 43)
Procedure: A brain endothelial cell line (bEND3) and a neuroblastoma cell line (SH-SY5Y) were also used for some experiments. bEND3 and SH-SY5Y cells were cultured using standard techniques in DMEM plus 5 or 15% foetal calf serum. Rat primary astrocytes were obtained and cultured as described for cortical neurons except DMEM plus 10% foetal calf serum was used instead of Neurobasal/2% B27, and the mitotic inhibitor, cytosine arabinofuraNOside was not used.
For neuronal cultures peptides were added to culture wells (96-well plate format) by removing media and adding 100 μl of 50% Neurobasal/2% N2 supplement and 50% BSS containing CPPs, JNKI-1 D-TAT or TAT-NR2B9c. Control cultures received of 50% Neurobasal/2% N2 supplement and 50% BSS media only. Cultures were incubation at 37° C. in the CO2 incubator for 20 hours, after which time cell viability was assessed using the MTS assay. For bEND3 cultures, peptides were added to culture wells (96-well plate format) by removing media and adding 100 μl of DMEM/2% FCS containing peptide. Control cultures received 100 μl of DMEM/2% FCS only, Cultures were incubation at 37° C. in the CO2 incubator for 0.5, 1 or 2 hours, after which time cell viability was assessed using the MTS assay. […] Cultures were incubation at 37° C. in the CO2 incubator for 24 hours, after which time cell viability was assessed using the MTS assay.
Twenty-four hours after insult, neuronal cultures were examined by light microscopy for qualitative assessment of neuronal cell viability. Neuronal viability was quantitatively measured by 3-(4,5,dimethyliazol-2-yl)-5-(3-carboxymethoxy-phenyl)-2-(4-sulfophenyl)-2H-tetrazolium salt (MTS) assay (Promega, Australia). The MTS assay measures the cellular conversion of the tetrazolium salt to a water-soluble brown formazan salt, which is detected spectrophotometrically at 490 nm. MTS absorbance data were converted to reflect proportional cell viability relative to both the untreated and treated controls, with the untreated control taken as 100% viability, and presented as mean±SEM. […]

Question: Which results are given for N=C(N)NCCC[C@H](NC(=O)[C@H](CCCNC(=N)N)NC(=O)[C@H](CCCNC(=N)N)NC(=O)[C@H](CCCNC(=N)N)NC(=O)[C@H](CCCNC(=N)N)NC(=O)[C@H](CCCNC(=N)N)NC(=O)[C@H](CCCNC(=N)N)NC(=O)[C@H](CCCNC(=N)N)NC(=O)[C@H](CCCNC(=N)N)NC(=O)[C@H](CCCNC(=N)N)NC(=O)[C@H](CCCNC(=N)N)NC(=O)[C@@H](N)CCCNC(=N)N)C(=O)O [Peptide R12]?
Answer: neuroprotective activity in vivo [1]: possessed neuroprotective activity in vivo; calcium influx after glutamic acid [2]: to varying degrees reduced calcium influx; neuroprotection when added immediately after glutamic acid exposure ([3]; 0 min post-insult (FIG. 1d)): highly effective; neuroprotection, milder insult ([3]; FIG. 1i, comparison at 0.5 μM and 1 μM): more effective than R9; neuroprotection, peptide present during the 5 minute glutamic acid insult only ([3]; FIG. 28): effective; neuroprotection, 10 minute pre-exposure removed immediately prior to insult ([3]; FIG. 29, FIG. 14): effective; neuroprotection, peptide for 10 minutes, 1 to 4 hours prior to glutamic acid insult ([3]; FIG. 30): effective; effect of heparin on neuroprotective action ([3]; heparin 20 IU/ml with peptide or 40 IU/ml on cultures (FIGS. 39, 40)): blocks neuroprotective actions; pIC50 ([3]; read-out: IC50: Glutamic acid model, Table 4, polyarginine peptides, from dose response graph FIG. 1e): 6.36; neuroprotection, peptide for 10 minutes, 1 to 3 hours prior to OGD ([4]; FIG. 32): effective; neuroprotection when added for 15 minutes after OGD [4]: Neuroprotection is displayed; neuroprotection when added post-in vitro ischemia/OGD ([4]; added after anaerobic incubation until experiment end (FIGS. 3b, 16, 17)): displayed neuroprotective effects; also recorded: effective

Question: Which “protection of bEND3 cells (cell death / viability after in vitro ischemia/OGD)” value [5] does the source give for PRRRRASRRIRRRRRPRVSRRRRRGGRRRR [Ptm4] here?
Answer: significantly increased cell viability

Question: What about the “protection of bEND3 cells (cell death / viability after in vitro ischemia/OGD)” value ([5]; listed as ptm4) of the same molecule?
Answer: protective

Question: And the “neuroprotection (neuronal viability)” value ([3]; peptide 15 min prior to and during glutamic acid exposure, viability 24 h, MTS)?
Answer: neuroprotective

Question: What about the “neuroprotection when added for 15 minutes after OGD” value [4] of the same molecule?
Answer: neuroprotective

Question: And the “neuroprotection in the OGD model (overall statement)” value ([4]; discussion summary)?
Answer: neuroprotective

Question: For PRRRRRSSSRPIRRRRRPRASRRRRRGGRRRR [Ptm1], which “astrocyte cell death following peptide exposure” value (primary rat astrocytes) is on record?
Answer: did not cause significant astrocyte cell death

Question: For PRRRRSSSRPVRRRRRPRVSRRRRRRGGRRRR [Ptm5], which “astrocyte cell death following peptide exposure” value (primary rat astrocytes) is on record?
Answer: did not cause significant astrocyte cell death

Question: With VSRRRRRRGGRRRR [LMWP] as the molecule, how does the “astrocyte cell death following peptide exposure” value (primary rat astrocytes) read?
Answer: did not cause significant astrocyte cell death
